Measurements from ChEMBL document CHEMBL1201862, “PubChem BioAssay data set” (2004).
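Interpolation was linear, between the two tested concentrations surrounding the appropriate level; five concentrations were tested over 48 hours in 96-well plates. Abbreviation: GI50, concentration required for 50% inhibition of growth.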 Activity calls are given as the source filed them. No stated cut-off is given here; in the data, active = GI50 up to about 1.1 µM and inactive = higher.

How the values were obtained:
Assay in all cases: NCI tumour cell line growth inhibition, 48 h
786-0 = tested on: 786-0
A498 = tested on: A498
A549 = tested on: A549
ACHN = tested on: ACHN
BT-549 = tested on: BT-549
CAKI-1 = tested on: CAKI-1
CCRF-CEM = tested on: CCRF-CEM
COLO 205 = tested on: COLO 205
DU-145 = tested on: DU-145
EKVX = tested on: EKVX
HCC 2998 = tested on: HCC 2998
HCT-116 = tested on: HCT-116
HCT-15 = tested on: HCT-15
HL-60 = tested on: HL-60
HOP-62 = tested on: HOP-62
HT-29 = tested on: HT-29
Hs-578T = tested on: Hs-578T
IGROV-1 = tested on: IGROV-1
K562 = tested on: K562
KM12 = tested on: KM12
LOX IMVI = tested on: LOX IMVI
M14 = tested on: M14
MCF7 = tested on: MCF7
MDA-MB-231 = tested on: MDA-MB-231
MDA-MB-435 = tested on: MDA-MB-435
MDA-N = tested on: MDA-N
MOLT-4 = tested on: MOLT-4
Malme-3M = tested on: Malme-3M
NCI-H23 = tested on: NCI-H23
NCI-H460 = tested on: NCI-H460
NCI-H522 = tested on: NCI-H522
NCI/ADR-RES = tested on: NCI/ADR-RES
OVCAR-3 = tested on: OVCAR-3
OVCAR-4 = tested on: OVCAR-4
OVCAR-5 = tested on: OVCAR-5
OVCAR-8 = tested on: OVCAR-8
PC-3 = tested on: PC-3
RPMI-8226 = tested on: RPMI-8226
RXF 393 = tested on: RXF 393
SF-268 = tested on: SF-268
SF-295 = tested on: SF-295
SF-539 = tested on: SF-539
SK-MEL-28 = tested on: SK-MEL-28
SK-MEL-2 = tested on: SK-MEL-2
SK-MEL-5 = tested on: SK-MEL-5
SK-OV-3 = tested on: SK-OV-3
SN12C = tested on: SN12C
SNB-19 = tested on: SNB-19
SR = tested on: SR
SW-620 = tested on: SW-620
T47D = tested on: T47D
TK-10 = tested on: TK-10
U-251 = tested on: U-251
UACC-257 = tested on: UACC-257
UACC-62 = tested on: UACC-62
UO-31 = tested on: UO-31

Q: Which results are given for `COC(=O)/C=c1/c2ccccc2n2nc3ccccc3c12`?
A: GI50 (786-0): 27.6 µM (inactive); GI50 (A498): 26.2 µM (inactive); GI50 (A549): 65.9 µM (inactive); GI50 (ACHN): > 100 µM (inactive); GI50 (BT-549): > 100 µM (inactive); GI50 (CAKI-1): 63 µM (inactive); GI50 (CCRF-CEM): 11.4 µM (inactive); GI50 (COLO 205): 27.6 µM (inactive); GI50 (DU-145): > 100 µM (inactive); GI50 (EKVX): > 100 µM (inactive); GI50 (HCC 2998): 62.5 µM (inactive); GI50 (HCT-116): 22.8 µM (inactive); GI50 (HCT-15): 77.1 µM; GI50 (HL-60): 45 µM (inactive); GI50 (HOP-62): > 100 µM (inactive); GI50 (HT-29): 38.9 µM (inactive); GI50 (Hs-578T): 52 µM (inactive); GI50 (IGROV-1): > 100 µM (inactive); GI50 (K562): 51.4 µM (inactive); GI50 (KM12): 27.5 µM (inactive); GI50 (LOX IMVI): 36.9 µM (inactive); GI50 (M14): > 100 µM (inactive); GI50 (MCF7): 42.6 µM (inactive); GI50 (MDA-MB-231): 16.4 µM (inactive); GI50 (MDA-MB-435): 33 µM (inactive); GI50 (MDA-N): 30.8 µM (inactive); GI50 (MOLT-4): 6.01 µM (inactive); GI50 (Malme-3M): 99.1 µM (inactive); GI50 (NCI-H23): 66.5 µM (inactive); GI50 (NCI-H460): 43.9 µM (inactive); GI50 (NCI-H522): 29 µM (inactive); GI50 (NCI/ADR-RES): 30.8 µM (inactive); GI50 (OVCAR-3): > 100 µM (inactive); GI50 (OVCAR-4): 23 µM (inactive); GI50 (OVCAR-5): > 100 µM (inactive); GI50 (OVCAR-8): > 100 µM (inactive); GI50 (PC-3): > 100 µM (inactive); GI50 (RPMI-8226): 18.4 µM (inactive); GI50 (RXF 393): 34 µM (inactive); GI50 (SF-268): 49.9 µM (inactive); GI50 (SF-295): > 100 µM (inactive); GI50 (SF-539): 26.6 µM (inactive); GI50 (SK-MEL-28): > 100 µM (inactive); GI50 (SK-MEL-2): 74.6 µM (inactive); GI50 (SK-MEL-5): 31.6 µM (inactive); GI50 (SK-OV-3): 16 µM (inactive); GI50 (SN12C): 66.8 µM (inactive); GI50 (SNB-19): 82.4 µM (inactive); GI50 (SR): 4.03 µM (inactive); GI50 (SW-620): 65 µM (inactive); GI50 (T47D): > 100 µM (inactive); GI50 (TK-10): 31.6 µM (inactive); GI50 (U-251): 69 µM (inactive); GI50 (UACC-257): 80.9 µM (inactive); GI50 (UACC-62): 70.8 µM (inactive); GI50 (UO-31): 62.2 µM (inactive)
